This note sets out measurements from PMC6518372, “An enzymatically stable GIP/xenin hybrid peptide restores GIP sensitivity, enhances beta cell function and improves glucose homeostasis in high-fat-fed mice” (Diabetologia, 2016).

In experiment [1] the test system is BRIN-BD11 cells. Nature of the experiment: In vitro insulin secretion from BRIN-BD11 cells. The class given is cell-based, rat. The conditions noted are these: 20 min. On the procedure: BRIN-BD11 cells were used to assess the insulin-releasing activity of test peptides, as described previously. This hybrid cell line (ECACC 10033003) was originally generated in-house by electrofusion of a primary culture of New England Deaconess Hospital (NEDH) rat pancreatic islets with RINm5F (a cell line derived from an NEDH rat insulinoma), and has been mycoplasma eradicated. For details of experimental conditions please see ESM Methods. Insulin was measured by radioimmunoassay. We assessed the impact of GIP and neurotensin receptors on (DAla^2)GIP/xenin-8-Gln-induced insulin secretion in BRIN-BD11 cells. Cells were incubated in 5.6 mmol/l glucose with (DAla^2)GIP/xenin-8-Gln (10^−6 mol/l) alone or in combination with the GIP receptor antagonist GIP(6-30)Cex-K^40[Pal] [32] (where Pal is palmitate) or the neurotensin receptor antagonist SR142948A (Sigma, Poole, UK), and insulin secretion determined as described above. In addition, to determine mechanisms, intracellular Ca^2+ was also measured in BRIN-BD11 cells following treatment with test peptides (10^−6 mol/l), using a Flexstation scanning fluorometer (FLIPR Calcium 5 assay kit; Molecular Devices, Sunnyvale, CA, USA), as described previously.
In vitro insulin release studies Cells were seeded at a density of 150,000 cells/well in 24-well plates (Nunc, Roskilde, Denmark) and allowed to attach overnight at 37 °C. Culture medium was removed and cells were pre-incubated in Krebs–Ringer bicarbonate buffer (containing 0.5% (w/v) BSA, pH 7.4) supplemented with 1.1 mmol/l glucose for 40 min at 37 °C. Following the pre-incubation, experiments (n=8) were performed in presence of glucose (5.6 or 16.7 mmol/l) with a […]
incubations, aliquots of assay buffer were collected from each well and stored at -20 °C prior to […]
Acute in vivo effects in lean mice For food intake studies, fasted (18 h) mice were given intraperitoneal (i.p) injections of peptides at a dose of 25, 100 or 250 nmol/kg bw. Mice were then allowed free access to normal chow for 180 mins and cumulative food intake measured. […]

In experiment [2] the test system is lean control mice. Nature of the experiment: Acute cumulative food intake in lean mice. The class given is in vivo, mouse. Conditions: 250 nmol/kg i.p., 18 h fasted lean mice, 180 min post injection, vs saline. The method, then: (§1) Animals Acute animal studies were conducted in male NIH Swiss mice (12-14 weeks old, Harlan Ltd, UK) maintained on a standard rodent maintenance diet (10% fat, 30% protein and 60% carbohydrate, Trouw Nutrition, UK). Prior to commencement of longer term studies, all animals, except lean controls that continued on rodent maintenance diet, were maintained on a high-fat diet (45% fat, 35% carbohydrate and 20% protein, Special Diet Services, UK) for 12 weeks. This diet […]
(§2) individually in an air-conditioned room at 22 ± 2 °C with a 12 h light:12 h dark cycle and had free access to food and water. Animal experiments were carried out in accordance with the UK Animals (Scientific Procedures) Act 1986.
(§3) Acute in vivo effects in lean mice For food intake studies, fasted (18 h) mice were given intraperitoneal (i.p) injections of peptides at a dose of 25, 100 or 250 nmol/kg bw. Mice were then allowed free access to normal chow for 180 mins and cumulative food intake measured. For glucose homeostasis and […]

For experiment [3], the system named is lean control mice. The experiment is described as follows: Acute glucose-lowering and insulin-releasing effects in lean mice. The class given is in vivo, mouse. Conditions: 25 nmol/kg i.p. with glucose 18 mmol/kg, non-fasted lean mice. On the procedure: Specific information on acute feeding, glucose homeostasis and insulin-secretory studies is given in ESM Methods. To assess the impact of GIP and neurotensin receptor activation on (DAla^2)GIP/xenin-8-Gln-induced glucose-lowering and insulin-secretory actions in mice, (DAla^2)GIP/xenin-8-Gln was administered by i.p. injection (25 nmol/kg body weight) in combination with glucose (18 mmol/kg) in the absence and presence of GIP(6-30)Cex-K^40[Pal] and SR142948A (both at 25 nmol/kg), and glucose and insulin were measured as described above. In a final series of experiments, test peptides (25 nmol/kg) or saline vehicle (0.9% wt/vol. NaCl) were injected 4 h before a glucose load (18 mmol/kg) in non-fasted mice and blood glucose and plasma insulin measured as above. […]
as §1, §2, §3

In experiment [4] the test system is lean control mice. Nature of the experiment: Persistent glucose-lowering and insulin-releasing effects, peptide 4 h before glucose load. The experiment is classed as in vivo, mouse. Conditions: 25 nmol/kg injected 4 h before i.p. glucose load 18 mmol/kg, non-fasted lean mice, vs saline. On the procedure: Specific information on acute feeding, glucose homeostasis and insulin-secretory studies is given in ESM Methods. To assess the impact of GIP and neurotensin receptor activation on (DAla^2)GIP/xenin-8-Gln-induced glucose-lowering and insulin-secretory actions in mice, (DAla^2)GIP/xenin-8-Gln was administered by i.p. injection (25 nmol/kg body weight) in combination with glucose (18 mmol/kg) in the absence and presence of GIP(6-30)Cex-K^40[Pal] and SR142948A (both at 25 nmol/kg), and glucose and insulin were measured as described above. In a final series of experiments, test peptides (25 nmol/kg) or saline vehicle (0.9% wt/vol. NaCl) were injected 4 h before a glucose load (18 mmol/kg) in non-fasted mice and blood glucose and plasma insulin measured as above.

The test system of experiment [5] is high-fat-fed mice. The experiment is described as follows: Glucose tolerance test after 21 day treatment. The experiment is classed as in vivo, mouse. The conditions noted are these: AUC 0–105 min after i.p. glucose 18 mmol/kg; 25 nmol/kg twice daily for 21 days; 18 h fasted high-fat-fed mice; mean ± SEM, 6–8 mice. The method, then: (§4) Twice-daily (09:30 and 17:30 hours) i.p. injections of saline vehicle, (DAla^2)GIP or (DAla^2)GIP/xenin-8-Gln hybrid (both at 25 nmol/kg) were administered for 21 days in high-fat-fed mice. Energy intake and body weight were monitored daily and non-fasting blood glucose and plasma insulin concentrations were assessed at 3 day intervals. On day 21, a non-fasted 24 h glucose profile was conducted. At the end of the treatment period, i.p. glucose tolerance (18 mmol/kg), biological response to GIP (18 mmol/kg glucose in combination with native GIP [25 nmol/kg], i.p.) and insulin sensitivity (15 U/kg; i.p.) tests were performed. Terminal analysis included measurement of total body fat and lean mass by dual-energy X-ray absorptiometry (DEXA) scanning (Piximus Densitometer; Inside Outside Sales, Fitchburg, WI, USA) and extraction of pancreatic tissue for analysis as detailed below.

Experiment [6] relates to high-fat-fed mice. The experiment is described as follows: Metabolic response to native GIP after 21 day treatment. The conditions noted are these: 25 nmol/kg twice daily for 21 days. The class given is in vivo, mouse. On the procedure: as §4
The mark [7] stands for this setting: AUC 0–105 min after i.p. glucose 18 mmol/kg with GIP 25 nmol/kg, 18 h fasted high-fat-fed mice, mean ± SEM, 6–8 mice.

Marks after values point to notes of the source that are not given here.

Regarding `CC[C@H](C)[C@H](NC(=O)[C@H](CO)NC(=O)[C@H](Cc1ccc(O)cc1)NC(=O)[C@H](CC(=O)O)NC(=O)[C@H](CO)NC(=O)[C@@H](NC(=O)[C@H](Cc1ccccc1)NC(=O)[C@@H](NC(=O)CNC(=O)[C@H](CCC(=O)O)NC(=O)[C@@H](C)NC(=O)[C@@H](N)Cc1ccc(O)cc1)[C@@H](C)O)[C@@H](C)CC)C(=O)N[C@@H](C)C(=O)N[C@@H](CCSC)C(=O)N[C@@H](CC(=O)O)C(=O)N[C@@H](CCCCN)C(=O)N[C@H](C(=O)N[C@@H](Cc1c[nH]cn1)C(=O)N[C@@H](CCC(N)=O)C(=O)N[C@@H](CCC(N)=O)C(=O)N[C@@H](CC(=O)O)C(=O)N[C@@H](Cc1ccccc1)C(=O)N[C@H](C(=O)N[C@@H](CC(N)=O)C(=O)N[C@@H](Cc1c[nH]c2ccccc12)C(=O)N[C@@H](CC(C)C)C(=O)N[C@@H](CC(C)C)C(=O)N[C@@H](C)C(=O)N[C@@H](CCC(N)=O)C(=O)N[C@@H](CCCCN)C(=O)NCC(=O)N[C@@H](CCCCN)C(=O)N[C@@H](CCCCN)C(=O)N[C@@H](CC(N)=O)C(=O)N[C@@H](CC(=O)O)C(=O)N[C@@H](Cc1c[nH]c2ccccc12)C(=O)N[C@@H](CCCCN)C(=O)N[C@@H](Cc1c[nH]cn1)C(=O)N[C@@H](CC(N)=O)C(=O)N[C@H](C(=O)N[C@H](C(=O)N[C@@H](CCC(N)=O)C(=O)O)[C@@H](C)O)[C@@H](C)CC)C(C)C)[C@@H](C)CC` [(DAla^2)GIP], the “Peptide-mediated insulin secretion in presence of GIP receptor antagonist GIP(6-30)Cex-K^40[Pal]” value in experiment [1] (peptide 10^−6 mol/l, antagonist 10^−6 mol/l, 5.6 mmol/l glucose) was “completely annulled”. Moreover, the “Insulin release from BRIN-BD11 cells” value in experiment [1] (peptide 10^−8 mol/l, 5.6 or 16.7 mmol/l glucose, vs respective glucose controls) is listed as “significant (p < 0.01 to p < 0.001) increase in insulin release”. The Cumulative food intake entry in experiment [2] was “all peptides except (DAla^2)GIP induced significant (p < 0.05 to p < 0.01) reductions”. Moreover, in experiment [3] (15 min post injection), the Blood glucose result was “significant (p < 0.05) reduction in blood glucose levels”. In addition, the Blood glucose result in experiment [3] (30 min post injection, vs glucose alone) is on record as “significantly (p < 0.05) lowered blood glucose values”. Further, the “Overall AUC blood glucose” value in experiment [3] (vs glucose alone) is “significantly (p < 0.05) decreased overall AUC blood glucose values”. Moreover, in experiment [4], the “Overall AUC for blood glucose after glucose challenge” value was “significantly reduced the overall AUC for blood glucose (p < 0.05)” and the “Plasma insulin AUC after glucose challenge” value is given as “increased plasma insulin AUC (p < 0.05)”. For the same compound, in experiment [5], the “Glucose tolerance test: Blood glucose AUC” value turned out to be 1714.7 ± 138.6 mmol·min/L and the “Glucose tolerance test: Plasma insulin AUC” value is 11,253 ± 1590 pmol/l × min. Further, in experiment [6] (high-fat-fed mice, glucose 18 mmol/kg with GIP 25 nmol/kg), the “Decrease of overall blood glucose AUC in response to native GIP compared with saline-treated control” value was 36%. In experiment [6] (setting [7]), the “Metabolic response to GIP: Blood glucose AUC” value was 1029.5 ± 138.0 mmol·min/L and the “Metabolic response to GIP: Plasma insulin AUC” value is on record as 20,308 ± 3805**^,††† pmol/l × min.
